Like-named read-outs stand apart in the source and are kept apart here.
Biological target: T1, PxKir2A (Plutella xylostella, UniProt A0A7L7TNR0)
T1 construct: gene kir2; full-length ORF in pEF1alpha-PxKir2A, no tag stated; transiently expressed in P. xylostella Px4-2 cells, EGFP co-transfected from a separate plasmid
Experiment: whole-cell patch clamp, inhibition of inward K+ current
Assay type: cell-based

T1 sequence (A0A7L7TNR0 entry or part of it): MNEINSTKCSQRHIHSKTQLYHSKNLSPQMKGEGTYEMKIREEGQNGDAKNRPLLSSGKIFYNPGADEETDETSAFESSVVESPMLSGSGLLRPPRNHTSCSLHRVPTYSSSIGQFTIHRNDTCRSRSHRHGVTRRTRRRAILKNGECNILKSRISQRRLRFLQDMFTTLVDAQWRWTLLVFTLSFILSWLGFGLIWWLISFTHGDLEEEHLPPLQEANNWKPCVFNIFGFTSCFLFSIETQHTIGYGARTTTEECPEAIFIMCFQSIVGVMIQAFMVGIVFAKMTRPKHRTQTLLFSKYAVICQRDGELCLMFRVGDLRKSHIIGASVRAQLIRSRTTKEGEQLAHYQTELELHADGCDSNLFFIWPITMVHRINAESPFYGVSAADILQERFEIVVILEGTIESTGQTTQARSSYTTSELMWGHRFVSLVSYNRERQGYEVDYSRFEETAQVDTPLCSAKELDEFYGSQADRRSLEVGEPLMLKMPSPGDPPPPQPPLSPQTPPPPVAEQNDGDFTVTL

O=[N+]([O-])c1ccc(CN2CCOCCOCCN(Cc3ccc([N+](=O)[O-])cc3)CCOCC2)cc1 [VU590]
IC50: 634 nM

CCC(=O)N1c2ccc(S(=O)(=O)Nc3cccc(OC)c3)cc2CC1C (centres unmarked) [VU625]
IC50 (bath 50 mM KCl, pH 6.4, 25 °C, holding -20 mV, steps -120 to +20 mV, DMSO <0.05%, read-out: IC50): 151 nM

From publication PMC11989005, “The Elongation Factor 1 Alpha Promoter Drives the Functional Expression of Kir2A in Plutella xylostella Cells” (International Journal of Molecular Sciences, 2025)
